Measurements taken from patent publication US20250230193A1, “CYCLIC COMPOUND HAVING SELECTIVE KRAS INHIBITORY EFFECT ON HRAS AND NRAS” (CHUGAI SEIYAKU KABUSHIKI KAISHA, priority 2022, published 2025).
Where a SMILES comes first, the peptide text is derived from it. Bridges are numbered along the chain shown (N, C = ends). [ ]: non-standard residue; d: D form. The star is where a group is joined. hPhe(3,5-F2-4-CF3) = N[C@@H](CCc1cc(F)c(C(F)(F)F)c(F)c1)C(=O)O; NPrPhe(4-CF3) = CCCN[C@@H](Cc1ccc(C(F)(F)F)cc1)C(=O)O; NMeGly(cPent) = CN[C@H](C(=O)O)C1CCCC1; NMeD = CN[C@@H](CC(=O)O)C(=O)O; Ac4c(3-oxa) = NC1(C(=O)O)COC1; NMeL = CN[C@@H](CC(C)C)C(=O)O; Morpholide = C1CN(*)CCO1; Sar = CNCC(=O)O

Tests used:
[1] = molecular target: GDP-bound NRAS wild-type protein (Homo sapiens, UniProt P01111); experiment: Binding to NRAS by surface plasmon resonance (SPR), Single Cycle Kinetics; details: SPR; for NRAS/KRAS (ratio of KD value for NRAS to KD value for KRAS) / NRAS/KRAS (ratio of KD value with respect to NRAS to KD value with respect to KRAS): GDP-bound NRAS wild-type vs GDP-bound KRAS wild-type
Chain of GDP-bound NRAS wild-type protein (P01111 whole entry): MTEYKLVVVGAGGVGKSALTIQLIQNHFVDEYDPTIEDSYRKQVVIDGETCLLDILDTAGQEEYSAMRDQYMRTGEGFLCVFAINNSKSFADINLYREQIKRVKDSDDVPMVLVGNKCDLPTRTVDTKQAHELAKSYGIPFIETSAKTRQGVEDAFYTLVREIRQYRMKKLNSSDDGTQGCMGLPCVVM

[2] = molecular target: GDP-bound HRAS wild-type protein (Homo sapiens, UniProt P01112); experiment: Binding to HRAS by surface plasmon resonance (SPR), Single Cycle Kinetics; details: SPR; for HRAS/KRAS (ratio of KD value for HRAS to KD value for KRAS) / HRAS/KRAS (ratio of KD value with respect to HRAS to KD value with respect to KRAS): GDP-bound HRAS wild-type vs GDP-bound KRAS wild-type
Chain of GDP-bound HRAS wild-type protein (P01112 whole entry): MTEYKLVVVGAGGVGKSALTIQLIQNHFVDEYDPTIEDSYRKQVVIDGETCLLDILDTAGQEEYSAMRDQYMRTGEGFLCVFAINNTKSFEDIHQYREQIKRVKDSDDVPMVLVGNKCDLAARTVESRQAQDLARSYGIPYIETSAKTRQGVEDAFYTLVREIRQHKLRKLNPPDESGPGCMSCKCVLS

CCCN(C)C(=O)[C@@H]1CC(=O)N(C)[C@@H](CCOC)C(=O)N[C@@H]([C@@H](C)CC)C(=O)N(C)CC(=O)N(C)[C@H]2C/C=C\CCN(C2=O)[C@@H](Cc2ccc(C(F)(F)F)cc2)C(=O)N(C)CC(=O)N[C@@H](CCc2ccc(C(F)(F)F)c(OC)c2)C(=O)N2C[C@@H](C)C[C@H]2C(=O)NC2(CCC2)C(=O)N(C)[C@@H](C2CCCC2)C(=O)N1C [PP2029]
NRAS/KRAS (ratio of KD value for NRAS to KD value for KRAS) ([1]; KD ratio): A (a compound having 10 or more and less than 20 is denoted as A) | HRAS/KRAS (ratio of KD value for HRAS to KD value for KRAS) ([2]; KD ratio): B (a compound having 3 or more and less than 10 is denoted as B)

CC[C@H](C)[C@@H]1NC(=O)[C@H](CC)N(C)C(=O)C[C@@H](C(=O)N(C)CC)N(C)C(=O)[C@H](C2CCCC2)N(C)C(=O)C2(CCC2)NC(=O)[C@@H]2C[C@@H](C)CN2C(=O)[C@H](CCc2ccc(C(F)(F)F)c(OC)c2)NC(=O)CN(C)C(=O)[C@H](Cc2ccc(C)cc2)N2CC/C=C\C[C@@H](C2=O)N(C)C(=O)CN(C)C1=O [PP1855]
NRAS/KRAS (ratio of KD value for NRAS to KD value for KRAS) ([1]; KD ratio): AA (a compound having 20 or more is denoted as AA) | HRAS/KRAS (ratio of KD value for HRAS to KD value for KRAS) ([2]; KD ratio): A (a compound having 10 or more and less than 20 is denoted as A)

CC[C@H](C)[C@@H]1NC(=O)[C@H](CC(F)(F)F)N(C)C(=O)C[C@@H](C(=O)N(C)C)N(C)C(=O)[C@H](C2CCCC2)N(C)C(=O)C2(CC(C)(C)C2)NC(=O)[C@@H]2CC(F)(F)CN2C(=O)[C@H](CCc2cc(F)c(C(F)(F)F)c(F)c2)NC(=O)CN(C)C(=O)[C@H](Cc2ccc(C(F)(F)F)cc2)N2CC/C=C\C[C@@H](C2=O)N(C)C(=O)CN(C)C1=O [PP1710]
NRAS/KRAS (ratio of KD value for NRAS to KD value for KRAS) ([1]; KD ratio): A (a compound having 10 or more and less than 20 is denoted as A) | HRAS/KRAS (ratio of KD value for HRAS to KD value for KRAS) ([2]; KD ratio): B (a compound having 3 or more and less than 10 is denoted as B)

CCCN1C(=O)CN(C)C(=O)CN(C)C(=O)[C@H]([C@@H](C)CC)NC(=O)[C@H](CC(C)C)N(C)C(=O)C[C@@H](C(=O)N2CCOCC2)N(C)C(=O)[C@H](C2CCCC2)N(C)C(=O)C2(COC2)NC(=O)[C@@H]2CCCN2C(=O)[C@H](CCc2cc(F)c(C(F)(F)F)c(F)c2)NC(=O)CN(C)C(=O)[C@@H]1Cc1ccc(C(F)(F)F)cc1 [PP0765] ([NMeL]I[Sar][Sar][NPrPhe(4-CF3)][Sar][hPhe(3,5-F2-4-CF3)]P[Ac4c(3-oxa)][NMeGly(cPent)][NMeD]-Morpholide; lactam N-11)
NRAS/KRAS (ratio of KD value with respect to GDP-bound NRAS wild-type protein to KD value with respect to KRAS) ([1]; KD ratio NRAS/KRAS): B (a compound having 3 or more and less than 10 is denoted as B) | HRAS/KRAS (ratio of KD value with respect to GDP-bound HRAS wild-type protein to KD value with respect to KRAS) ([2]; KD ratio HRAS/KRAS): C (A compound having a KD ratio of 0.1 or more and less than 3 is denoted as C)

CCC[C@H]1C(=O)N[C@@H]([C@@H](C)CC)C(=O)N(C)CC(=O)N(C)[C@H]2C/C=C\CCN(C2=O)[C@@H](Cc2ccc(C(F)(F)F)cc2)C(=O)N(C)CC(=O)N[C@@H](CCc2ccc(Cl)c(Cl)c2)C(=O)N2C[C@H](OCC)C[C@H]2C(=O)NC2(CC(C)(C)C2)C(=O)N(C)[C@@H](C(CC)CC)C(=O)N(C)[C@H](C(=O)N(C)C)CC(=O)N1C [PP2175]
NRAS/KRAS (ratio of KD value with respect to NRAS to KD value with respect to KRAS) [1]: AA (a compound having 20 or more is denoted as AA) | HRAS/KRAS (ratio of KD value with respect to HRAS to KD value with respect to KRAS) [2]: A (a compound having 10 or more and less than 20 is denoted as A)

CCO[C@@H]1C[C@H]2C(=O)NC3(CCC3)C(=O)N(C)[C@@H](C3CCCC3)C(=O)N(C)[C@H](C(=O)N3CCOCC3)CC(=O)N(C)[C@@H](CC(C)C)C(=O)N[C@@H]([C@@H](C)CC)C(=O)N(C)CC(=O)N(C)[C@H]3CCCCCN(C3=O)[C@@H](Cc3ccc(F)c(C)c3)C(=O)N(C)CC(=O)N[C@@H](CCc3cc(F)c(C(F)(F)F)c(F)c3)C(=O)N2C1 [PP0922]
NRAS/KRAS (ratio of KD value with respect to NRAS to KD value with respect to KRAS) ([1]; KD ratio): B (a compound having 3 or more and less than 10 is denoted as B) | HRAS/KRAS (ratio of KD value with respect to HRAS to KD value with respect to KRAS) ([2]; KD ratio): B (a compound having 3 or more and less than 10 is denoted as B)
